Assay results taken from article PMC5099554 (British Journal of Clinical Pharmacology, 2016).
Read-outs that look alike come from different tables or passages of the source.

Columns and labels:
CYP3A4 = CYP3A4 (Homo sapiens, UniProt P08684); settings: in vitro; cited from earlier work
[1] = for Tmax / AUC(0-inf) / AUC(0-t) / half-life: male, human, in vivo; for AUC(0-inf): AUCinf; for AUC(0-inf) / AUC(0-t): geometric mean; for AUC(0-t): AUClast; for half-life: t 1/2, geometric mean
CYP enzyme = settings: in vitro studies; cited from earlier work
CYP2C9 = CYP2C9 (Homo sapiens, UniProt P11712); settings: in vitro; cited from earlier work
CYP2C9, sequence (P11712 whole entry): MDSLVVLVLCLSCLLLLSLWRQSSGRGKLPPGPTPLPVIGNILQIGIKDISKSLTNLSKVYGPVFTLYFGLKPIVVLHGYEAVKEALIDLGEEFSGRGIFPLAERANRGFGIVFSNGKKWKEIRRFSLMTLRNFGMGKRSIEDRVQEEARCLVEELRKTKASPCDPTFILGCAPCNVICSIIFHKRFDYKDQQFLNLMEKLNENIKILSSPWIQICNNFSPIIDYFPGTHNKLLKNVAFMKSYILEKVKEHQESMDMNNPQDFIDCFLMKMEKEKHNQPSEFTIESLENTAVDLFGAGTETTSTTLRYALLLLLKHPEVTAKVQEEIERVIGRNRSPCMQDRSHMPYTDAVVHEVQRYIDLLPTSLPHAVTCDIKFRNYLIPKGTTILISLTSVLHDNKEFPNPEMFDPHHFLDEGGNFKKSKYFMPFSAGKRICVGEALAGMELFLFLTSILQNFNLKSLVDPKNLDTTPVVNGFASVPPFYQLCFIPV

[2] = healthy male subjects, plasma, after 2 weeks of fermented red ginseng
[3] = healthy male subjects, plasma, before fermented red ginseng
[4] = After FRG, healthy male subjects, plasma, after 2 weeks of fermented red ginseng
[5] = Before FRG, healthy male subjects, plasma, before fermented red ginseng
[6] = t max (median), After FRG, healthy male subjects, plasma, after 2 weeks of fermented red ginseng
[7] = t max (median), Before FRG, healthy male subjects, plasma, before fermented red ginseng

CYP3A4, sequence (P08684 whole entry): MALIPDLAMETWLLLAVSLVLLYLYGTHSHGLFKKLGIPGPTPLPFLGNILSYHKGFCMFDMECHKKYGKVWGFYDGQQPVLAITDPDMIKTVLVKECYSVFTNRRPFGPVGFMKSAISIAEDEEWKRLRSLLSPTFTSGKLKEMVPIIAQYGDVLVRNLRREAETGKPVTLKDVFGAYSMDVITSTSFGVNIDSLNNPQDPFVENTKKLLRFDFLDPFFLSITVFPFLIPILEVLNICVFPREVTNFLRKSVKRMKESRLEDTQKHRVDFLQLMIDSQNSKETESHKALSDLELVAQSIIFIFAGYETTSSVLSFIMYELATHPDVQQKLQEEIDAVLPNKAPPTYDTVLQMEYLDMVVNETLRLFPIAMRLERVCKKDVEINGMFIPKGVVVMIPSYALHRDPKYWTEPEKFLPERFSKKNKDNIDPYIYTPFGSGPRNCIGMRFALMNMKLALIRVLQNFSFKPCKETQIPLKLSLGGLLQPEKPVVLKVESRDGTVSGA

Structure (SMILES): CC(C)=CCCC(C)(O)[C@H]1CC[C@]2(C)[C@@H]1[C@H](O)C[C@@H]1[C@@]3(C)CC[C@H](O)C(C)(C)[C@@H]3CC[C@]12C (stereo in doubt) [PPD, protopanaxadiol]
- inhibition of CYP3A4 activity (CYP3A4): potent inhibition

Structure (SMILES): OCc1ncc2n1-c1ccc(Cl)cc1C(c1ccccc1F)=NC2 [1‐hydroxymidazolam]
- AUCinf, geometric mean ratio, After FRG: Before FRG (90% CI) ([1]; healthy male subjects, plasma): 0.924 (0.791–1.080)
- AUClast, geometric mean ratio, After FRG: Before FRG (90% CI) ([1]; healthy male subjects, plasma): 0.944 (0.805–1.107)
- C max, geometric mean ratio, After FRG: Before FRG (90% CI) ([1]; healthy male subjects, plasma): 0.750 (0.583–0.966)
- AUCinf, geometric mean, After FRG [1, 2]: 0.074221 µg·h/mL
- AUClast, geometric mean, After FRG [1, 2]: 0.069474 µg·h/mL
- t 1/2, geometric mean, After FRG [1, 2]: 0.678 h
- t max (median), After FRG [1, 2]: 0.517 h
- AUCinf, geometric mean, Before FRG [1, 3]: 0.080311 µg·h/mL
- AUClast, geometric mean, Before FRG [1, 3]: 0.073587 µg·h/mL
- t 1/2, geometric mean, Before FRG [1, 3]: 0.728 h
- t max (median), Before FRG [1, 3]: 0.500 h

Structure (SMILES): COc1ccc2nc([S+]([O-])Cc3ncc(CO)c(OC)c3C)[nH]c2c1 (centres unmarked) [5‐hydroxyomeprazole]
- AUCinf, geometric mean ratio, After FRG: Before FRG (90% CI) ([1]; healthy male subjects, plasma): 1.050 (0.961–1.147)
- AUClast, geometric mean ratio, After FRG: Before FRG (90% CI) ([1]; healthy male subjects, plasma): 0.979 (0.918–1.045)
- C max, geometric mean ratio, After FRG: Before FRG (90% CI) ([1]; healthy male subjects, plasma): 0.945 (0.859–1.039)
- AUCinf, geometric mean, After FRG [1, 2]: 0.283859 µg·h/mL
- AUClast, geometric mean, After FRG [1, 2]: 0.239033 µg·h/mL
- t 1/2, geometric mean, After FRG [1, 2]: 2.716 h
- t max (median), After FRG [1, 2]: 3.000 h
- AUCinf, geometric mean, Before FRG [1, 3]: 0.270368 µg·h/mL
- AUClast, geometric mean, Before FRG [1, 3]: 0.244051 µg·h/mL
- t 1/2, geometric mean, Before FRG [1, 3]: 1.971 h
- t max (median), Before FRG [1, 3]: 3.000 h

Structure (SMILES): COc1ccc2c(c1)[C@]13CCCC[C@@H]1[C@H](C2)N(C)CC3 [Dextromethorphan, dextromethorphan]
- AUCinf, geometric mean ratio, After FRG: Before FRG (90% CI) ([1]; healthy male subjects, plasma): 0.869 (0.638–1.184)
- AUClast, geometric mean ratio, After FRG: Before FRG (90% CI) ([1]; healthy male subjects, plasma): 0.907 (0.681–1.209)
- C max, geometric mean ratio, After FRG: Before FRG (90% CI) ([1]; healthy male subjects, plasma): 0.849 (0.688–1.047)
- t 1/2, geometric mean, After FRG [1, 2]: 7.006 h
- t 1/2, geometric mean, Before FRG [1, 3]: 7.540 h
- Tmax [1]: 2 h
- AUC(0-inf) [1, 4]: 0.0435 µg·h/mL
- AUC(0-inf) [1, 5]: 0.0501 µg·h/mL
- AUC(0-t) [1, 4]: 0.0171 µg·h/mL
- AUC(0-t) [1, 5]: 0.0189 µg·h/mL

Structure (SMILES): CN1CC[C@@]23CCCC[C@@H]2[C@@H]1Cc1ccc(O)cc13 [Dextrorphan, dextrorphan]
- AUCinf, geometric mean ratio, After FRG: Before FRG (90% CI) ([1]; healthy male subjects, plasma): 1.042 (0.932–1.164)
- AUClast, geometric mean ratio, After FRG: Before FRG (90% CI) ([1]; healthy male subjects, plasma): 1.044 (0.926–1.176)
- C max, geometric mean ratio, After FRG: Before FRG (90% CI) ([1]; healthy male subjects, plasma): 1.024 (0.876–1.198)
- t max (median), Before FRG [1, 3]: 2.000 h
- AUC(0-inf) [1, 4]: 0.0661 µg·h/mL
- AUC(0-inf) [1, 5]: 0.0635 µg·h/mL
- AUC(0-t) [1, 4]: 0.0603 µg·h/mL
- AUC(0-t) [1, 5]: 0.0577 µg·h/mL
- half-life [1, 4]: 3.43 h
- half-life [1, 5]: 3.92 h

Structure (SMILES): CCCCc1nc(Cl)c(C(=O)O)n1Cc1ccc(-c2ccccc2-c2nn[nH]n2)cc1 [EXP3174]
- AUCinf, geometric mean ratio, After FRG: Before FRG (90% CI) ([1]; healthy male subjects, plasma): 0.813 (0.687–0.963)
- AUClast, geometric mean ratio, After FRG: Before FRG (90% CI) ([1]; healthy male subjects, plasma): 0.811 (0.684–0.963)
- C max, geometric mean ratio, After FRG: Before FRG (90% CI) ([1]; healthy male subjects, plasma): 0.832 (0.694–0.997)
- AUC(0-inf) [1, 4]: 2.61 µg·h/mL
- AUC(0-inf) [1, 5]: 3.21 µg·h/mL
- AUC(0-t) [1, 4]: 2.5 µg·h/mL
- AUC(0-t) [1, 5]: 3.08 µg·h/mL
- Tmax [1, 6]: 4 h
- Tmax [1, 7]: 3 h

Structure (SMILES): CCCCc1nc(Cl)c(CO)n1Cc1ccc(-c2ccccc2-c2nn[nH]n2)cc1 [Losartan, losartan]
- AUCinf, geometric mean ratio, After FRG: Before FRG (90% CI) ([1]; healthy male subjects, plasma): 1.047 (0.887–1.237)
- AUClast, geometric mean ratio, After FRG: Before FRG (90% CI) ([1]; healthy male subjects, plasma): 1.048 (0.887–1.239)
- C max, geometric mean ratio, After FRG: Before FRG (90% CI) ([1]; healthy male subjects, plasma): 0.974 (0.797–1.190)
- AUC(0-inf) [1, 4]: 0.549 µg·h/mL
- AUC(0-inf) [1, 5]: 0.524 µg·h/mL
- AUC(0-t) [1, 4]: 0.542 µg·h/mL
- AUC(0-t) [1, 5]: 0.517 µg·h/mL
- half-life [1, 4]: 1.94 h
- half-life [1, 5]: 1.86 h
- Tmax [1, 6]: 1.5 h
- Tmax [1, 7]: 1.5 h

Structure (SMILES): Cc1ncc2n1-c1ccc(Cl)cc1C(c1ccccc1F)=NC2 [Midazolam, midazolam]
- AUCinf, geometric mean ratio, After FRG: Before FRG (90% CI) ([1]; healthy male subjects, plasma): 1.138 (1.007–1.285)
- AUClast, geometric mean ratio, After FRG: Before FRG (90% CI) ([1]; healthy male subjects, plasma): 1.157 (1.022–1.309)
- C max, geometric mean ratio, After FRG: Before FRG (90% CI) ([1]; healthy male subjects, plasma): 0.873 (0.732–1.041)
- AUC(0-inf) [1, 4]: 0.126 µg·h/mL
- AUC(0-inf) [1, 5]: 0.11 µg·h/mL
- AUC(0-t) [1, 4]: 0.119 µg·h/mL
- AUC(0-t) [1, 5]: 0.103 µg·h/mL
- half-life [1, 4]: 2.96 h
- half-life [1, 5]: 3.3 h

Structure (SMILES): COc1ccc2[nH]c([S+]([O-])Cc3ncc(C)c(OC)c3C)nc2c1 (centres unmarked) [Omeprazole, omeprazole]
- AUCinf, geometric mean ratio, After FRG: Before FRG (90% CI) ([1]; healthy male subjects, plasma): 0.936 (0.819–1.069)
- AUClast, geometric mean ratio, After FRG: Before FRG (90% CI) ([1]; healthy male subjects, plasma): 0.931 (0.812–1.067)
- C max, geometric mean ratio, After FRG: Before FRG (90% CI) ([1]; healthy male subjects, plasma): 0.892 (0.747–1.066)
- t max (median), Before FRG [1, 3]: 2.000 h
- AUC(0-inf) [1, 4]: 1.28 µg·h/mL
- AUC(0-inf) [1, 5]: 1.37 µg·h/mL
- AUC(0-t) [1, 4]: 1.26 µg·h/mL
- AUC(0-t) [1, 5]: 1.35 µg·h/mL
- half-life [1, 4]: 1.22 h
- half-life [1, 5]: 1.19 h

Structure (SMILES): CC(C)=CCC[C@](C)(O)[C@H]1CC[C@]2(C)[C@@H]1[C@H](O)C[C@@H]1[C@@]3(C)CC[C@H](O)C(C)(C)[C@@H]3[C@@H](O)C[C@]12C [PPT, protopanaxatriol]
- inhibition of CYP3A4 activity (CYP3A4): potent inhibition

Structure (SMILES): Cn1c(=O)[nH]c2ncn(C)c2c1=O [Paraxanthine, paraxanthine]
- AUCinf, geometric mean ratio, After FRG: Before FRG (90% CI) ([1]; healthy male subjects, plasma): 1.432 (1.125–1.823)
- AUClast, geometric mean ratio, After FRG: Before FRG (90% CI) ([1]; healthy male subjects, plasma): 1.017 (0.943–1.096)
- C max, geometric mean ratio, After FRG: Before FRG (90% CI) ([1]; healthy male subjects, plasma): 0.979 (0.906–1.057)
- AUC(0-inf) [1, 4]: 53.9 µg·h/mL
- AUC(0-inf) [1, 5]: 37.6 µg·h/mL
- AUC(0-t) [1, 4]: 24.6 µg·h/mL
- AUC(0-t) [1, 5]: 24.2 µg·h/mL
- half-life [1, 4]: 20.7 h
- half-life [1, 5]: 11.8 h
- Tmax [1, 6]: 6 h

Structure (SMILES): CC(C)=CCC[C@](C)(O[C@@H]1O[C@H](CO[C@@H]2OC[C@H](O)[C@H](O)[C@H]2O)[C@@H](O)[C@H](O)[C@H]1O)[C@H]1CC[C@]2(C)[C@@H]1[C@H](O)C[C@@H]1[C@@]3(C)CC[C@H](O[C@@H]4O[C@H](CO)[C@@H](O)[C@H](O)[C@H]4O[C@@H]4O[C@H](CO)[C@@H](O)[C@H](O)[C@H]4O)C(C)(C)[C@@H]3CC[C@]12C [Rb2, ginsenoside Rb2]
- effect on CYP enzyme activity (CYP enzyme): do not affect

Structure (SMILES): CC(C)=CCC[C@](C)(O[C@@H]1O[C@H](CO[C@@H]2O[C@@H](CO)[C@H](O)[C@H]2O)[C@@H](O)[C@H](O)[C@H]1O)[C@H]1CC[C@]2(C)[C@@H]1[C@H](O)C[C@@H]1[C@@]3(C)CC[C@H](O[C@@H]4O[C@H](CO)[C@@H](O)[C@H](O)[C@H]4O[C@@H]4O[C@H](CO)[C@@H](O)[C@H](O)[C@H]4O)C(C)(C)[C@@H]3CC[C@]12C [Rc, ginsenoside Rc]
- effect on CYP enzyme activity (CYP enzyme): do not affect

Structure (SMILES): CC(C)=CCC[C@](C)(O[C@@H]1O[C@H](CO)[C@@H](O)[C@H](O)[C@H]1O)[C@H]1CC[C@]2(C)[C@@H]1[C@H](O)C[C@@H]1[C@@]3(C)CC[C@H](O)C(C)(C)[C@@H]3[C@@H](O[C@@H]3O[C@H](CO)[C@@H](O)[C@H](O)[C@H]3O)C[C@]12C [Rg1, ginsenoside Rg1]
- effect on CYP enzyme activity (CYP enzyme): do not affect

Structure (SMILES): CC(C)=CCC[C@](C)(O[C@@H]1O[C@H](CO)[C@@H](O)[C@H](O)[C@H]1O)[C@H]1CC[C@]2(C)[C@@H]1[C@H](O)C[C@@H]1[C@@]3(C)CC[C@H](O)C(C)(C)[C@@H]3CC[C@]12C [compound K, 20‐O‐(β‐D‐glucopyranosyl)‐20(S)‐protopanaxadiol]
- inhibition of CYP2C9 activity (CYP2C9): moderate inhibition
- inhibition of CYP3A4 activity (CYP3A4): moderate inhibition

Structure (SMILES): CC(C)=CCC[C@](C)(O[C@@H]1O[C@H](CO[C@@H]2O[C@H](CO)[C@@H](O)[C@H](O)[C@H]2O)[C@@H](O)[C@H](O)[C@H]1O)[C@H]1CC[C@]2(C)[C@@H]1[C@H](O)C[C@@H]1[C@@]3(C)CC[C@H](O[C@@H]4O[C@H](CO)[C@@H](O)[C@H](O)[C@H]4O[C@@H]4O[C@H](CO)[C@@H](O)[C@H](O)[C@H]4O)C(C)(C)[C@@H]3CC[C@]12C [ginsenoside Rb1]
- effect on CYP enzyme activity (CYP enzyme): do not affect

Structure (SMILES): CC(C)=CCC[C@](C)(O)[C@H]1CC[C@]2(C)[C@@H]1[C@H](O)C[C@@H]1[C@@]3(C)CC[C@H](O[C@@H]4O[C@H](CO)[C@@H](O)[C@H](O)[C@H]4O)C(C)(C)[C@@H]3CC[C@]12C [ginsenoside Rh2]
- inhibition of CYP2C9 activity (CYP2C9): moderate inhibition
- inhibition of CYP3A4 activity (CYP3A4): moderate inhibition
